From patent US6147100A, “Pyrrolidine derivatives having phospholipase A2 inhibitory activity” (Shionogi & Co., Ltd., priority 1997, dated 2000)

Legend:
[1] = target: T1, cPLA2 (Homo sapiens, UniProt P47712); test: cPLA2 Inhibitory Activity; format: biochemical; conditions: 1-palmitoyl-2-[14C]-arachidonoyl-sn-glycero-3-phosphocholine 2.5 μM, sn-1,2-dioleoylglycerol 1.25 μM; pH 7.5, 15 min at 37° C.
T1 sequence (P47712 1-749): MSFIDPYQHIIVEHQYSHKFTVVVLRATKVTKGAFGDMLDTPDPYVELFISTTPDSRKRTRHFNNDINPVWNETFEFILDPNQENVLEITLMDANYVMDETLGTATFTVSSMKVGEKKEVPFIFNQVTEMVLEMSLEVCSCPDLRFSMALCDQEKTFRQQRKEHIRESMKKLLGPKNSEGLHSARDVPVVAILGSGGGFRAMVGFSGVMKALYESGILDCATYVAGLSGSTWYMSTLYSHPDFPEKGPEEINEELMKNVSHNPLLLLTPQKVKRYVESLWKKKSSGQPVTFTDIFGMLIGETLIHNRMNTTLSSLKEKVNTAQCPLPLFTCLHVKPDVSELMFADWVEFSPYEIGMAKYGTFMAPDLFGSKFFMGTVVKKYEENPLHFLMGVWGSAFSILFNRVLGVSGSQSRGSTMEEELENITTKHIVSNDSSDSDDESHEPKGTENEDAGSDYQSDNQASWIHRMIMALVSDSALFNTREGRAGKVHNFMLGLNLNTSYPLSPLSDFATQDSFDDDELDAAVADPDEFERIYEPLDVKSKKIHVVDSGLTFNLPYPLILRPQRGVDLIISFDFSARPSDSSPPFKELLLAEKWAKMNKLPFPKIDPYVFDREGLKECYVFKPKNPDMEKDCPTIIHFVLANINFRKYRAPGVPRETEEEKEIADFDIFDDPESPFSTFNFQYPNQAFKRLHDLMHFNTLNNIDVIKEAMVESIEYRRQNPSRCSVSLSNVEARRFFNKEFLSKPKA
How it was run: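 Radiometric assay in 50 mM HEPES pH 7.5 with 1 mM CaCl2, 150 mM NaCl, 0.1 mg/ml BSA and 1.7 mM DTT; compound and substrate added, reaction started with enzyme, 15 min at 37° C. Released fatty acids extracted (Dole method), counted by liquid scintillation versus no-compound control.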

[2] = tested on: production of prostaglandin E2 by human fibroblasts; test: Inhibition of Production of Prostaglandin E2 in Human Fibroblasts (IL-1 stimulation); format: cell-based; conditions: Fibroblast; human fibroblasts under stimulation with IL-1
How it was run: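 Human fibroblasts stimulated with IL-1, with prostaglandin E2 production measured in the presence of compound as a cellular read-out of cPLA2 inhibition.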

IC50 [1] [nM]	Compound	IC50 [2] [nM]
1100	O=C1NC(=O)/C(=C/c2ccc(C=C[C@@H]3C[C@@H](OCc4ccccc4-c4ccccc4)CN3C(=O)c3ccccc3C(=O)c3ccc(F)cc3)cc2)S1 [Compound E-4]	1200
33	O=C1NC(=S)S/C1=C\c1ccc(C(=O)NC[C@@H]2C[C@@H](SCc3ccccc3-c3ccccc3)CN2C(=O)c2ccccc2C(=O)c2ccc(F)cc2)s1 [Compound I-8]	1000
1810	O=C1NC(=O)/C(=C/c2ccc(C(=O)NC[C@H]3C[C@@H](OCc4ccccc4-c4ccccc4)CN3C(=O)c3ccccc3C(=O)c3ccc(F)cc3)cc2)S1 [Compound Q-2]	1400
2510	O=C1NC(=O)/C(=C/c2ccc(C(=O)NC[C@H]3C[C@@H](SCc4ccccc4-c4ccccc4)CN3C(=O)c3ccccc3C(=O)c3ccc(F)cc3)cc2)S1 [Compound Q-1]	1200
59	CN(Cc1ccccc1-c1ccccc1)[C@@H]1C[C@@H](C(=O)Nc2ccc(/C=C3\SC(=S)NC3=O)cc2)N(C(=O)c2ccccc2C(=O)c2ccc(F)cc2)C1 [Compound N-3]	1000

The next lines start with the molecule.

Compound	IC50 [1] [nM]	IC50 [2] [nM]
O=C1NC(=O)/C(=C/c2ccc(C(=O)NC[C@@H]3C[C@@H](OCc4ccccc4-c4ccccc4)CN3C(=O)c3ccccc3C(=O)C3CCCCC3)cc2)S1 [Compound A-14]	370	330
O=C1NC(=O)/C(=C/c2ccc(C(=O)NC[C@@H]3C[C@@H](OCc4ccc(F)cc4F)CN3C(=O)c3ccccc3C(=O)c3ccccc3)cc2)S1 [Compound A-3]	1400	900
O=C1NC(=S)S/C1=C\c1ccc(C(=O)NC[C@@H]2C[C@@H](OCc3ccccc3-c3ccccc3)CN2C(=O)c2ccccc2C(=O)c2ccc(F)cc2)s1 [Compound A-59]	47	940
O=C1NC(=O)/C(=C/c2ccc(C(=O)NC[C@@H]3C[C@@H](OCc4ccccc4Oc4ccccc4)CN3C(=O)c3ccccc3C(=O)c3ccc(F)cc3)cc2)S1 [Compound A-48]	90	620
O=C1NC(=O)/C(=C/c2ccc(C(=O)NC[C@@H]3C[C@@H](Oc4cccc(-c5ccccc5)c4)CN3C(=O)c3ccccc3C(=O)c3ccc(F)cc3)cc2)S1 [Compound A-69]	72	190
O=C(/C=C/c1ccc(/C=C2\SC(=O)NC2=O)cc1)NC[C@@H]1C[C@@H](OCc2ccccc2-c2ccccc2)CN1C(=O)c1ccccc1C(=O)c1ccc(F)cc1 [Compound A-52]	53	620
O=C1NC(=O)/C(=C/c2ccc(C(=O)NC[C@@H]3C[C@@H](Oc4ccccc4-c4cccc([N+](=O)[O-])c4)CN3C(=O)c3ccccc3C(=O)c3ccc(F)cc3)cc2)S1 [Compound A-111]	66	470
COc1cccc(-c2ccccc2O[C@@H]2C[C@@H](CNC(=O)c3ccc(/C=C4\SC(=O)NC4=O)cc3)N(C(=O)c3ccccc3C(=O)c3ccc(F)cc3)C2)c1 [Compound A-98]	59	440
O=C1NC(=O)/C(=C/c2ccc(C(=O)NC[C@@H]3C[C@@H](OCc4ccccc4-c4cccc([N+](=O)[O-])c4)CN3C(=O)c3ccccc3C(=O)c3ccc(F)cc3)cc2)S1 [Compound A-45]	74	380
CN(C)c1cccc(O[C@@H]2C[C@@H](CNC(=O)c3ccc(/C=C4\SC(=O)NC4=O)cc3)N(C(=O)c3ccccc3C(=O)c3ccc(F)cc3)C2)c1 [Compound A-87]	180	330
O=C1NC(=O)/C(=C/c2ccc(C(=O)NC[C@@H]3C[C@@H](OCc4ccccc4-c4cccc5ccccc45)CN3C(=O)c3ccccc3C(=O)c3ccc(F)cc3)cc2)S1 [Compound A-35]	40	180
O=C1NC(=O)/C(=C/c2ccc(C(=O)NC[C@@H]3C[C@@H](Oc4ccccc4-c4cccc5ccccc45)CN3C(=O)c3ccccc3C(=O)c3ccc(F)cc3)cc2)S1 [Compound A-94]	24	1400
